Each structure is given as a SMILES string. pIC50: −log10 of the molar value.

Common to all, as to assay type: functional, cell-based
For experiment [1], the system named is A549. The experiment can be described thus: Cytotoxicity against human A549 cells.
Experiment [2] relates to K562. The experiment can be described thus: Cytotoxicity against human K562 cells.
Experiment [3] deals with HepG2. Put plainly: Cytotoxicity against human HepG2 cells.

`C=C1[C@@H]2C[C@H](OC(C)=O)[C@H]3[C@@]4(C)[C@H](C(=O)[C@H](OC(C)=O)[C@]3(C2)[C@@H]1OC(C)=O)C(C)(C)[C@@H](O)C[C@@H]4O` [NERVONIN C]: the pIC50 in experiment [1], in experiment [2] and in experiment [3] was under 4.00 each time.

`C=C1[C@@H]2C[C@H](O)[C@H]3[C@@]4(C)[C@H]([C@@H](O)[C@H](OC(C)=O)[C@]3(C2)[C@@H]1O)C(C)(C)[C@@H](OC(C)=O)C[C@@H]4O` [FORRESTIN B]: the pIC50 in experiment [1], in experiment [2] and in experiment [3] was under 4.00 in each case.

Regarding `C=C1[C@@H]2C[C@H](OC(C)=O)[C@H]3[C@]4(C)[C@@H](OC(C)=O)C[C@H](O)C(C)(C)[C@H]4C(=O)[C@H](O)[C@]3(C2)[C@@H]1O` [NERVONIN E], the pIC50 in experiment [1], in experiment [2] and in experiment [3] was under 4.00 throughout.

`C=C1C(=O)[C@]23C[C@H]1C[C@H](OC(C)=O)[C@H]2[C@]1(C)[C@@H](OC(C)=O)C[C@H](O)C(C)(C)[C@H]1[C@@H](O)[C@@H]3OC(C)=O` [WEISIENSIN A]: the pIC50 (as a rule, the negative decadic logarithm of the IC50, by convention in mol/L) is 5.73 in experiment [1], 5.39 in experiment [2] and 5.84 in experiment [3].

Take `C=C1C(=O)[C@]23C[C@H]1C[C@H](OC(C)=O)[C@H]2[C@@]1(C)[C@H]([C@@H](OC(C)=O)[C@@H]3OC(C)=O)C(C)(C)[C@@H](O)C[C@@H]1O` [NERVONIN B]: the pIC50 in experiment [1] is 5.82; in experiment [2] it was 5.93; in experiment [3], 5.94.

As to `C=C1[C@@H]2C[C@H](O)[C@H]3[C@]4(C)[C@@H](OC(C)=O)C[C@H](O)C(C)(C)[C@H]4[C@@H](O)[C@H](OC(C)=O)[C@]3(C2)[C@@H]1O` [NERVONIN F], the pIC50 in experiment [1], in experiment [2] and in experiment [3] was under 4.00 in each case.

On to `C=C1[C@@H]2C[C@H](OC(C)=O)[C@H]3[C@]4(C)[C@@H](OC(C)=O)C[C@H](O)C(C)(C)[C@H]4[C@@H](O)[C@H](OC(C)=O)[C@]3(C2)[C@@H]1OC(C)=O` [NERVONIN D], for which the pIC50 in experiment [1], in experiment [2] and in experiment [3] was under 4.00 each time.

Take `C=C1[C@@H]2C[C@H](O)[C@@H]3[C@@](CC(=O)[C@@H]4C(C)(C)[C@@H](O)C[C@H](O)[C@]43C)(C2)[C@@H]1OC(C)=O` [NERVONIN J]: the pIC50 in experiment [1], in experiment [2] and in experiment [3] was under 4.00 each time.

With `C=C1C(=O)[C@]23C[C@H]1C[C@H](OC(C)=O)[C@H]2[C@@]1(C)[C@H](C(=O)[C@@H]3OC(C)=O)C(C)(C)[C@@H](O)C[C@@H]1O` [CALCICOLIN B], the results for the pIC50 in experiment [1], in experiment [2] and in experiment [3] were 5.07, 5.81 and 6.28, respectively.

`C=C1[C@@H]2C[C@H](OC(C)=O)[C@H]3[C@]4(C)[C@@H](OC(C)=O)C[C@H](O)[C@]5(C)C[C@@](O)([C@H]54)[C@H](OC(C)=O)[C@]3(C2)[C@@H]1OC(C)=O` [NERVONIN A]: the pIC50 in experiment [1], in experiment [2] and in experiment [3] was under 4.00 each time.

Turning to `C=C1C(=O)[C@]23C[C@H]1C[C@H](OC(C)=O)[C@H]2[C@]1(C)[C@@H](OC(C)=O)C[C@H](O)C(C)(C)[C@H]1C(=O)[C@@H]3OC(C)=O` [ADENANTHIN], the pIC50 in experiment [1] was 5.09; in experiment [2], 5.98; in experiment [3], 6.49.

For `C=C1[C@@H]2C[C@H](OC(C)=O)[C@H]3[C@]4(C)[C@@H](OC(C)=O)C[C@H](O)C(C)(C)[C@H]4C(=O)[C@H](OC(C)=O)[C@]3(C2)[C@@H]1OC(C)=O` [NERVOSANIN], the pIC50 in experiment [1], in experiment [2] and in experiment [3] was under 4.00 in each case.

Take `C=C1[C@@H]2C[C@H](OC(C)=O)[C@H]3[C@]4(C)[C@@H](OC(C)=O)C[C@H](O)C(C)(C)[C@H]4C(=O)[C@H](O)[C@]3(C2)[C@@H]1OC(C)=O` [ADENANTHIN K]: the pIC50 in experiment [1], in experiment [2] and in experiment [3] was under 4.00 in each case.

For `C=C1[C@@H]2C[C@H](OC(C)=O)[C@H]3[C@]4(C)[C@@H](OC(C)=O)C[C@H](O)C(C)(C)[C@H]4[C@H](O)[C@H](OC(C)=O)[C@]3(C2)[C@@H]1O` [FORRESTIN C], the pIC50 in experiment [1], in experiment [2] and in experiment [3] was under 4.00 throughout.

As for `C=C1C(=O)[C@]23C[C@H]1C[C@H](OC(C)=O)[C@H]2[C@]1(C)[C@@H](OC(C)=O)C[C@H](O)C(C)(C)[C@H]1[C@@H](OC(C)=O)[C@@H]3OC(C)=O` [CALCICOLIN A], the pIC50 is 4.91 in experiment [1], 5.62 in experiment [2] and 6.29 in experiment [3].

`C=C1[C@@H]2C[C@H](O)[C@H]3[C@]4(C)[C@@H](OC(C)=O)C[C@H](O)C(C)(C)[C@H]4[C@@H](OC(C)=O)[C@H](OC(C)=O)[C@]3(C2)[C@@H]1O` [NERVONIN G]: the pIC50 in experiment [1], in experiment [2] and in experiment [3] was under 4.00 in each case.

As to `C=C1[C@@H]2C[C@H](O)[C@H]3[C@@]4(C)[C@H](C[C@H](OC(C)=O)[C@]3(C2)[C@@H]1O)C(C)(C)[C@@H](OC(C)=O)C[C@@H]4O` [ADENANTHIN E], the pIC50 in experiment [1], in experiment [2] and in experiment [3] was under 4.00 each time.

For the molecule `C=C1[C@@H]2C[C@H](OC(C)=O)[C@H]3[C@@]4(C)[C@H]([C@@H](O)[C@H](OC(C)=O)[C@]3(C2)[C@@H]1O)C(C)(C)[C@@H](O)C[C@@H]4O` [NERVONIN I], the pIC50 in experiment [1], in experiment [2] and in experiment [3] was under 4.00 throughout.

On to `C=C1[C@@H]2C[C@H](OC(C)=O)[C@H]3[C@@]4(C)[C@H](C[C@H](OC(C)=O)[C@]3(C2)[C@@H]1O)C(C)(C)[C@@H](O)C[C@@H]4O` [NERVONIN H], for which the pIC50 in experiment [1], in experiment [2] and in experiment [3] was under 4.00 throughout.

As to `C=C1[C@@H]2C[C@H](OC(C)=O)[C@H]3[C@]4(C)[C@@H](OC(C)=O)C[C@H](O)C(C)(C)[C@H]4C(=O)[C@H](OC(C)=O)[C@]3(C2)[C@@H]1O` [ADENANTHIN J], the pIC50 in experiment [1], in experiment [2] and in experiment [3] was under 4.00 in each case.

The values above are taken from ChEMBL document CHEMBL1149889, “ent-Kaurane Diterpenoids from Isodon nervosus” (J Nat Prod, 2008).
